Experimental data published in PubChem BioAssay AID1645868 (Buhrlage Lab, Dana-Farber Cancer Institute and Novartis …, 2021).
The source made the active and inactive calls.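 Rule for the calls: active = maximal percent inhibition of the deubiquitinase OTUD3 of at least 30% across the tested doses; inactive = the rest.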

molecular target: OTU domain-containing protein 3 (Homo sapiens) (UniProt Q5T2D3); assay: Validation of screening hits, potency titration, in vitro enzymatic, OTU domain-containing protein 3 DUB inhibitors (AID 1645868); conditions: purified OTUD3, ubiquitin-rhodamine cleavage fluorescence, 2 h
Sequence (Q5T2D3 whole entry, looked up, the tested form may be a part): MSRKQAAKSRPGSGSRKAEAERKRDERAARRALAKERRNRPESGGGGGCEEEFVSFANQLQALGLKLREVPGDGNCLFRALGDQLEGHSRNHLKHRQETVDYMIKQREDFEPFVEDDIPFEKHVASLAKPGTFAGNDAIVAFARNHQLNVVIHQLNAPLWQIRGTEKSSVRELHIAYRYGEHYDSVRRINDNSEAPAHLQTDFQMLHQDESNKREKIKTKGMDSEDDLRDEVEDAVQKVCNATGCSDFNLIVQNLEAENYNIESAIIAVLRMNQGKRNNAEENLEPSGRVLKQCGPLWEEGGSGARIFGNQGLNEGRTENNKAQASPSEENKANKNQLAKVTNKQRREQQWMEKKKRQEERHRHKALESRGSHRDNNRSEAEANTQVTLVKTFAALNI

| SMILES | IC50 |
| --- | --- |
| Cc1ccccc1Cc1nc(-c2ccc(=O)[nH]c2)no1 | > 50 µM (inactive) |
| Cc1ccccc1Cn1ccc2ccn(Cc3cccnc3)c2c1=O | > 50 µM (inactive) |
| COc1ccccc1CNC(=O)CCCn1c(=O)c2ccccc2n(CC(=O)N2CCN(c3ccccc3)CC2)c1=O | 25.5 µM |
| N#Cc1c(-c2cccs2)cc(-c2cccs2)[nH]c1=O | > 50 µM (inactive) |
| CC(C)(C)C(=O)C1C2C(=O)N(c3ccc4c(c3)OCO4)C(=O)C2C2c3ccccc3C=CN12 (stereo not given) | > 50 µM (inactive) |
| NS(=O)(=O)c1ccc(CNS(=O)(=O)c2ccc(-c3ccccn3)s2)cc1 | 24.7 µM |
| O=C(CSc1cn(Cc2ccccc2)c2ccccc12)Nc1ccc2c(c1)OCCO2 | > 50 µM (inactive) |
| C/C=C1/C2=CCCN3C(=O)O[C@H]([C@H]1O)[C@H]23 | > 50 µM (inactive) |
| N#Cc1ccc(Cl)cc1NC(=O)COc1cccnc1[N+](=O)[O-] | > 50 µM (inactive) |
| CN1c2ccccc2CN(CC(N)=O)CC1Cc1ccccc1 (stereo not given) | > 50 µM (inactive) |
| Cc1cc(C(=O)N2CCN(C3CCN(Cc4ccc(Cl)o4)CC3)C(=O)C2)c(C)o1 | > 50 µM (inactive) |
| CC(=O)N1Cc2ccccc2CC2(CCCN(CC3CCOCC3)C2)C1 (stereo not given) | > 50 µM (inactive) |
| COc1ccc(C2CC(=O)Nc3n[nH]c(-c4ccccc4)c32)cc1OC (stereo not given) | > 50 µM (inactive) |
| O=C(COc1ccc(S(=O)(=O)N2CCOCC2)cc1)N1CCC(Cc2ccccc2)CC1 | > 50 µM (inactive) |
| O=C1c2ccccc2-n2c1nc1ccccc1c2=O | > 50 µM (inactive) |
| CCN(CCCNC(=O)c1ccc(Cn2c(=O)[nH]c3ccccc3c2=O)cc1)c1ccccc1 | 17.4 µM |
| COc1ccc(NC(=O)c2ccc(Nc3nnc(C)c4ccccc34)cc2)cc1 | > 50 µM (inactive) |
| CC(Sc1n[nH]c2nc3ccccc3n12)C(=O)Nc1ccc2c(c1)OCCO2 (stereo not given) | > 50 µM (inactive) |
| Cc1cccc(NC(=O)CSc2ncnc3c2sc2nc(CC(C)C)c4c(c23)CCC4)c1 | > 50 µM (inactive) |
| COC(=O)c1cc2c(ccn2C)n1CC(=O)NC1CCCC1 | > 50 µM (inactive) |
| O=C(NCCn1ccc2ccccc21)c1cc2ccccc2oc1=O | > 50 µM (inactive) |
| CCNc1oc(-c2ccc(S(=O)(=O)N3CCCCC3)cc2)nc1C#N | > 50 µM (inactive) |
| O=C(CSc1nc2cc(S(=O)(=O)Nc3ccccc3Cl)ccc2o1)Nc1ccc(N2CCOCC2)cc1 | > 50 µM (inactive) |
| COc1c2n(c3ccccc13)[C@@]1(O)C(=O)N(C)C(=O)[C@@]1(O)c1c-2n(C)c2ccc(Cl)cc12 | > 50 µM (inactive) |

| SMILES | IC50 |
| --- | --- |
| Cc1cc(O)c2c3c(c(O)cc2c1)C(=O)c1c(O)cccc1C3=O | 4.84 µM |
| CC(OC(=O)c1cn(-c2ccccc2)nc1-c1cccnc1)C(=O)Nc1cccc(S(=O)(=O)N(C)C)c1 (stereo not given) | > 50 µM (inactive) |
| CCN1CCN(C(=O)CCCN(c2ccccc2)S(C)(=O)=O)CC1 | > 50 µM (inactive) |
| Cn1c(=O)[nH]c2nncnc2c1=O | > 50 µM (inactive) |
| COc1ccc(NC(=O)CS(=O)(=O)c2[nH]c(-c3ccc(C)cc3)nc2-c2ccccc2)cc1Cl | > 50 µM (inactive) |
| COc1ccc(-c2nc3n(n2)C(c2cccc(O)c2)C2=C(CCCC2=O)N3)cc1 (stereo not given) | > 50 µM (inactive) |
| COc1cccc(N2CCN(C(=O)c3cc(NC(C)=O)cc4nc(C)ccc34)CC2)c1 | > 50 µM (inactive) |
| Cc1ccccc1NC(=O)c1ccn(COc2ccc(Cl)cc2)n1 | > 50 µM (inactive) |
| CCOC(=O)c1cc2c(ccn2C)n1Cc1cccc2ccccc12 | > 50 µM (inactive) |
| COc1ccc(C2CC(c3ccc(C)cc3)N(C(=O)C3CC3)c3ncnn32)cc1 (stereo not given) | > 50 µM (inactive) |
| COc1c(C)c(C(O)C(C)O)c2[nH]c3ccc(CC=C(C)C)cc3c2c1O (stereo not given) | 25.6 µM |
| FC(F)(F)c1cccc(N2CCN(c3nc4ccccc4n4nnnc34)CC2)c1 | > 50 µM (inactive) |
| COc1cccc(-n2cnc3cc(C(=O)NC4CC4)ccc3c2=O)c1 | > 50 µM (inactive) |
| CCc1cccc2c(C(=O)COc3ccc(C#N)cc3)c[nH]c12 | 47.3 µM |
| Cc1sc(NC(=O)CNc2ccccc2)nc1-c1ccc2c(c1)CCN2C(=O)C(C)C | > 50 µM (inactive) |
| COc1ccc(NC(=O)C2CCCN(S(=O)(=O)N3CCCCCC3)C2)cc1 (stereo not given) | > 50 µM (inactive) |
| O=C(Nc1ccccc1)c1cn(-c2cc(N3CCCC3)ncn2)cn1 | > 50 µM (inactive) |
| Cc1cccc(N2CCN(C(=O)c3nnn(-c4ccc(F)cc4)n3)CC2)c1 | > 50 µM (inactive) |
| O=C(COc1ccc(Cl)cc1)Nc1noc(-c2ccccc2)n1 | 29.2 µM |
| COC(=O)c1ccc(Cn2cnc3ccc(Br)cc3c2=O)o1 | > 50 µM (inactive) |
| COc1ccc(-c2nc(Cn3nnc(C(=O)Nc4ccc(C)c(C)c4)c3N)c(C)o2)cc1 | 3.46 µM |
| COc1ccc(CNC(=O)c2[nH]nc3c2CCc2ccccc2-3)cc1 | > 50 µM (inactive) |
| COc1ccc(-c2ccnc(-c3ccc(OCc4cccc(F)c4)cc3)n2)cc1 | 45.8 µM |
| CC1CCc2c(sc3ncnc(OCc4cccc([N+](=O)[O-])c4)c23)C1 (stereo not given) | > 50 µM (inactive) |

| SMILES | IC50 |
| --- | --- |
| CCOc1ccc(CCNC(=O)c2cccc3c2C(=O)N(CCOC)C3)cc1OCC | > 50 µM (inactive) |
| O=c1[nH]c2ccccc2cc1CN(Cc1ccco1)S(=O)(=O)c1ccc(F)cc1 | > 50 µM (inactive) |
| Cc1ccc(-c2nc(-c3cccs3)cc(C(F)(F)F)c2C#N)cc1 | > 50 µM (inactive) |
| CC(C)c1cc(Nc2cccc(F)c2)n2nc(-c3cccnc3)nc2n1 | > 50 µM (inactive) |
| COc1cccc(Cn2nc3n(CC(C)C)c(=O)c4ccc(C(=O)NCC(C)C)cc4n3c2=O)c1 | 10.2 µM |
| COc1ccc(CCNC(=O)c2cc(C3CC3)nc3c2cnn3C(C)C)cc1 | > 50 µM (inactive) |
| O=C(Nc1ccc(F)cc1F)NC1CCN(c2ccccc2)C1=O (stereo not given) | 32.9 µM |
| O=C1CC(C(=O)Nc2ccccc2Cl)n2nc(-c3ccccc3)cc2N1 (stereo not given) | 34 µM |
| CCCc1nc2sc3c(NC4CCCCC4)ncnc3c2c2c1CCC2 | > 50 µM (inactive) |
| O=C(Cn1c(=O)n(Cc2ccc3c(c2)OCO3)c(=O)c2ncccc21)c1ccc(Cl)cc1 | 33.9 µM |
| O=C(c1ccc2occc2c1)N1CCC(S(=O)(=O)c2ccc(-c3ccco3)cc2)CC1 | > 50 µM (inactive) |
| Cn1cc2cccc(NC(=O)c3ccc(F)cc3)c2n1 | > 50 µM (inactive) |
| NS(=O)(=O)c1cccc(NS(=O)(=O)c2ccc(/C=C/C(=O)OCC(=O)c3ccc(Br)cc3)cc2)c1 | > 50 µM (inactive) |
| O=c1c2cnc(N3CCOCC3)nc2ccn1CCc1ccccc1 | 28 µM |
| COc1ccc(C(=O)Nc2ccc(S(=O)(=O)N3CCCCC3)cc2)cc1 | > 50 µM (inactive) |
| COc1ccc(-n2nnc(C(=O)Nc3ccccc3)c2N)cc1 | > 50 µM (inactive) |
| O=C(COc1cccc2ccc(N3CCC(Cc4ccccc4)CC3)nc12)NCc1ccc(F)cc1 | 30.5 µM |
| CCCC(O)CCCCCCCc1cc(O)cc(O)c1C(=O)OC(CCC)CCCCCCCc1cc(O)cc(O)c1 (stereo not given) | 36 µM |
| CC1CCN(S(=O)(=O)c2ccc(C(=O)Nc3ccc(S(N)(=O)=O)cc3)cc2)CC1 | > 50 µM (inactive) |
| C/C1=C/C=C/[C@H](C)[C@H](O)[C@@H](C)[C@@H](O)[C@@H](C)[C@H](O)[C@H](C)[C@@H](O)[C@@H](C)/C=C(/C)C(=O)c2c(O)c(C)cc3c2C(=O)C=C(NC1=O)C3=O | > 50 µM (inactive) |
| CC1=CC(=O)C(C2=C(O)C(=O)C(C)=CC2=O)=C(O)C1=O | 25.6 µM |
| Cc1ccccc1Cn1cc(SCC(=O)Nc2ccc3c(c2)OCCO3)c2ccccc21 | > 50 µM (inactive) |
| COc1cccc2c1NC(=O)C21CCN(C(=O)Nc2cccc3ccccc23)CC1 | > 50 µM (inactive) |
| Cc1ccc(-c2noc(-c3nnc(SCC(=O)NC4CCCC4)n3C)n2)cc1 | > 50 µM (inactive) |

| SMILES | IC50 |
| --- | --- |
| Cc1nc(-c2ccc(NC(=O)N3CCN(c4ccccn4)CC3)cc2)no1 | > 50 µM (inactive) |
| COc1ccc(OC)c(CCNC(=O)CCC2=NS(=O)(=O)c3ccc(C(F)(F)F)cc3N2)c1 | 29.2 µM |
| CNc1nc2c(c(=O)n1Cc1ccccc1)CN(C(=O)c1ccc(CN)cc1)CC2 | > 50 µM (inactive) |
| COc1cc(NC(=O)COC(=O)Cn2cnc3ccccc32)cc(OC)c1 | > 50 µM (inactive) |
| CC1CCc2sc(NC(=O)c3ccccc3Oc3ccccc3)c(C(N)=O)c2C1 (stereo not given) | 31.6 µM |
| c1csc(-c2nc(Nc3ccc4c(c3)CCC4)c3ccccc3n2)c1 | > 50 µM (inactive) |
| COc1ccc(C2SCC(=O)Nc3c2c(=O)[nH]n3C2CCCCC2)cc1 (stereo not given) | 23.3 µM |
| O=C(CCn1c(=O)c2ccccc2n(Cc2cc(=O)n3ccccc3n2)c1=O)NCCc1ccc(Cl)cc1 | 30.6 µM |
| COc1ccc2nc(SCC(=O)Nc3ccc(NC(C)=O)cc3)c(C)cc2c1 | 31.9 µM |
| Cc1nnc(Sc2cc(C(=O)NCCN3CCCC3)c3ccccc3n2)s1 | > 50 µM (inactive) |
| O=c1c2c(ccn1Cc1cc(F)ccc1F)ccn2Cc1cccnc1 | > 50 µM (inactive) |
| CN(c1ccccc1)c1nc(=O)n(CC(=O)Nc2ccc3c(c2)OCCO3)c2ccccc12 | > 50 µM (inactive) |
| Cc1ccccc1NC(=O)c1cc(S(=O)(=O)N2CCCCCC2)ccc1Cl | 29.7 µM |
| COc1ccccc1-c1nc(-c2cn(-c3ccc(C)cc3)nn2)no1 | > 50 µM (inactive) |
| O=C(CC1C(=O)N(Cc2ccccc2)c2nc3ccccc3n21)NCCc1ccccc1 (stereo not given) | 19.7 µM |
| O=C(CSc1ccc(-c2cccc([N+](=O)[O-])c2)nn1)Nc1cccc(F)c1 | 25.2 µM |
| CCOc1ccc(CCNC(=O)CCC(=O)Nc2ccc3nc(N4CCN(C)CC4)cc(C)c3c2)cc1OCC | > 50 µM (inactive) |
| O=C(NC1CCN(Cc2ccccc2)CC1)c1[nH]nc2c1COc1ccccc1-2 | > 50 µM (inactive) |
| Cc1ccc(C)c(NS(=O)(=O)c2cc(-c3cnc(C4CC4)o3)ccc2C)c1 | > 50 µM (inactive) |
| O=C(Nc1ccc2c(c1)OCCO2)C1CCC(Cn2cnc3ccccc3c2=O)CC1 (stereo not given) | > 50 µM (inactive) |
| N#Cc1ccc(COC(=O)c2ccc3ccccc3n2)cc1 | > 50 µM (inactive) |
| N#Cc1ccc(Cc2ncc(C(F)(F)F)cc2Cl)s1 | > 50 µM (inactive) |
| O=C(c1ccc2ncccc2c1)N1CCC2(C1)Nc1cccnc1NC2=NC1CCCC1 (stereo not given) | > 50 µM (inactive) |
